For 8 molecules, TGI and GI50 results are on record in PubChem BioAssay (NCI).

Structures are written as SMILES. Where “and” joins values, the source holds several entries; their conditions need not be identical. Equal values may be shown once.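 Step 1: Grow cells in 96-well plates. Step 2: Expose to compound for 48 hours at 5 concentrations. Step 3: Interpolate endpoints linearly; if unreached, use highest concentration. Here, GI50 denotes the concentration required for 50% inhibition of growth. TGI denotes the concentration required for complete inhibition of growth.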

Common to all, as to experiment: NCI-60 cell line screen, 48 h
Assay [1] concerns K-562 leukemia.
The test system of assay [2] is ACHN renal.
In assay [3] the test system is IGROV1 ovarian.
Assay [4] has as its system NCI-H226 lung.
For assay [5], the system named is SK-MEL-2 melanoma.
Assay [6] concerns EKVX NSCLC.
Assay [7] relates to SF-539 CNS.
In assay [8] the test system is M14 melanoma.
Assay [9] concerns UO-31 renal.
The test system of assay [10] is RPMI-8226 leukemia.

As to `COc1cc(C2c3cc4c(cc3[C@@H](N(C)C)[C@H]3COC(=O)C23)OCO4)cc(OC)c1O` (stereo not given in full), the TGI in assay [1], in assay [2], in [3], in assay [4], in assay [5] and in [6] was over 100 µM throughout. Also, the TGI was 53.8 µM in [7], over 100 µM in assay [8], over 100 µM in assay [9] and over 100 µM in assay [10].
Take `COC(=O)C1Cc2c([nH]c3ccccc23)C(c2ccccc2O)N1Cc1ccccc1` (stereo not given): the TGI in assay [1] was over 46.4 µM; in assay [2], 39.9 µM; in assay [3] it was 33.3 µM; in assay [4], over 46.4 µM; in assay [5] it was over 31.6 µM; in [6] it was over 31.6 µM. Also, the TGI in [7] was 65.2 µM; in assay [8], over 46.4 µM; in [9], over 46.4 µM; in assay [10], over 100 µM.
Regarding `COC(=O)[C@]1(C)CCC[C@@]2(C)[C@@H]3C[C@@H]4[C@H]5C[C@@]3(CC[C@@H]21)C[C@@]45C`, the TGI amounted to 19.1 µM in assay [1]; 29.2 µM in [2]; 36 µM in [3]; 30.5 µM in [4]; 30.9 µM in [5]; 31.7 µM in assay [6]. Besides, the TGI in [7] was 38.7 µM; in assay [8] it was 38.8 µM; in assay [9] it was 29.4 µM; in [10], 27.7 µM.
In the case of `COc1ccc(NC(=O)n2nc(/C=C\c3ccc(O)c(OC)c3)cc2/C=C\c2ccc(O)c(OC)c2)cc1`, the GI50 in assay [1] is 2.86 µM; in [2], 4.18 µM; in [3], 4.49 µM; in assay [4] it was 10.7 µM; in assay [5], 3.23 µM; in assay [6], 6.62 µM. Moreover, the GI50 in assay [7] is 2.35 µM; in assay [8], 3.15 µM; in assay [9], 1.52 µM; in assay [10], 3.38 µM. For the same molecule, the TGI was 16.9 µM in [1]; over 100 µM in assay [2]; 57 µM in assay [3]; 78.6 µM in assay [4]; 18.1 µM in [5]; 83.7 µM in [6]. Further, the TGI is 13.6 µM in assay [7], 41.5 µM in assay [8], 36.4 µM in [9] and 29.2 µM in assay [10].
`CC[C@@]12C=CCN3CC[C@]4(c5cc(NC(=O)COc6cc(OCC(=O)Nc7cc8c(cc7OC)N(C)[C@H]7[C@@](O)(C(=O)OC)[C@H](OC(C)=O)[C@]9(CC)C=CCN%10CC[C@]87[C@@H]%109)cc7oc(-c8ccccc8)cc(=O)c67)c(OC)cc5N(C)[C@@H]4[C@](O)(C(=O)OC)[C@H]1OC(C)=O)[C@H]32`: the GI50 in assay [1] was 3.86 µM; in assay [2], over 100 µM; in [3], 1.32 µM; in [4], 4.34 µM; in assay [5], 43.5 µM; in [6], 3.28 µM. Besides, the GI50 in assay [7] is 4.62 µM; in [8], 6.06 µM; in assay [9] it was over 100 µM; in [10], 3.2 µM. Also, the TGI was over 100 µM in [1]; over 100 µM in assay [2]; 3.63 µM in assay [3]; 18 µM in [4]; over 100 µM in assay [5]; over 100 µM in [6]. In addition, the TGI was over 100 µM in assay [7], 28.7 µM in assay [8], over 100 µM in assay [9] and over 100 µM in [10].
As to `COc1cc2ncnc3c2cc1OCCCCCN(C)Cc1ccc(Br)cc1N3`, the GI50 in assay [1] was 3.98 µM and 2.93 µM; in [2], 0.0871 µM and 0.262 µM; in [3], 0.35 µM and 0.31 µM; in [4], 26.4 µM and 7.69 µM; in assay [5] it was 6.37 µM and 2.2 µM; in assay [6] it was 0.24 µM. Further, the GI50 is over 100 µM in [7]; 1.94 µM and 0.939 µM in assay [8]; 0.285 µM and 0.267 µM in assay [9]; 7.39 µM and 3.92 µM in assay [10]. Besides, the TGI in assay [1] was over 100 µM; in [2], 37.5 µM and > 10 µM; in assay [3], 10.6 µM and 4.31 µM; in assay [4], over 100 µM; in assay [5], over 100 µM; in assay [6], over 10 µM. Further, the TGI in assay [7], in [8], in [9] and in assay [10] was over 100 µM throughout.
For `CC12CC=CCC1CCC1C2CCC2(C)C(c3ccc(=O)oc3)CCC12O` (stereo not given), the GI50 in assay [1] is 0.0967 µM; in assay [2] it was 0.0369 µM; in assay [3], 0.0737 µM; in assay [4], 0.219 µM; in assay [5] it was 0.24 µM; in assay [6], 0.0602 µM. Moreover, the GI50 in assay [7] is 0.055 µM; in assay [8] it was 0.113 µM; in assay [9], 0.0988 µM; in assay [10] it was 0.107 µM. The TGI in assay [1] was 2.27 µM; in assay [2], 0.138 µM; in assay [3] it was 1.41 µM; in assay [4] it was 0.595 µM; in [5], 0.741 µM; in [6] it was 0.212 µM. Further, the TGI turned out to be 0.184 µM in [7], 0.404 µM in assay [8], 0.225 µM in assay [9] and 0.756 µM in assay [10].
For the molecule `CNCCNc1nc2ccccc2c2c(=O)c3cc(F)ccc3sc12`, the GI50 in [1] is 1.64 µM; in assay [2], 1.56 µM; in assay [3], 1.75 µM; in assay [4] it was 1.8 µM; in assay [5], 1.76 µM; in assay [6], 1.74 µM. Moreover, the GI50 in [7] is 1.71 µM; in [8], 1.64 µM; in assay [9] it was 1.39 µM; in assay [10], 1.91 µM. The TGI in assay [1] is 4.35 µM; in assay [2], 2.91 µM; in assay [3], 3.34 µM; in assay [4], 3.76 µM; in assay [5] it was 3.45 µM; in [6], 3.57 µM. The TGI was found to be 3.13 µM in assay [7], 3.07 µM in [8], 2.81 µM in assay [9] and 4.03 µM in assay [10].
